Reference: ChEMBL document CHEMBL1201862, “PubChem BioAssay data set” (2004)
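1) Cells in 96-well plates. 2) Compound, 48 h, 5 concentrations. 3) Linear interpolation between surrounding doses. 4) Unreached endpoint = highest concentration. Abbreviation: GI50, concentration required for 50% inhibition of growth.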 Activity calls are given as the source filed them. Rule as the data show it: active = GI50 up to about 1.1 µM and inactive = higher.

Experiments:
Assay in all cases: NCI-60 cell line screen, 48 h
786-0 = tested on: 786-0
COLO 205 = tested on: COLO 205
HCC 2998 = tested on: HCC 2998
HCT-15 = tested on: HCT-15
HL-60 = tested on: HL-60
LOX IMVI = tested on: LOX IMVI
Malme-3M = tested on: Malme-3M
OVCAR-4 = tested on: OVCAR-4
SF-539 = tested on: SF-539
SN12C = tested on: SN12C
SNB-75 = tested on: SNB-75
SR = tested on: SR
TK-10 = tested on: TK-10
U-251 = tested on: U-251
UACC-257 = tested on: UACC-257
MDA-MB-435 = tested on: MDA-MB-435
NCI/ADR-RES = tested on: NCI/ADR-RES
PC-3 = tested on: PC-3
SK-OV-3 = tested on: SK-OV-3
DU-145 = tested on: DU-145

COC(=O)CC1NC(=O)C1C(C)(OC)OC (configuration not stated)
GI50 (786-0): > 100 µM (inactive)
GI50 (COLO 205): > 100 µM (inactive)
GI50 (HCC 2998): > 100 µM (inactive)
GI50 (HCT-15): > 100 µM
GI50 (HL-60): > 100 µM (inactive)
GI50 (LOX IMVI): > 100 µM (inactive)
GI50 (Malme-3M): > 100 µM (inactive)
GI50 (OVCAR-4): > 100 µM (inactive)
GI50 (SF-539): > 100 µM (inactive)
GI50 (SN12C): > 100 µM (inactive)
GI50 (SNB-75): 30.3 µM (inactive)
GI50 (SR): > 100 µM (inactive)
GI50 (TK-10): > 100 µM (inactive)
GI50 (U-251): > 100 µM (inactive)
GI50 (UACC-257): > 100 µM (inactive)

COc1ccc(-c2c(C#N)c(-c3ccc(C)cc3)n(NS(=O)(=O)c3ccccc3)c(=O)c2C#N)cc1
GI50 (786-0): 51.5 µM (inactive)
GI50 (COLO 205): > 100 µM (inactive)
GI50 (HCC 2998): 45.8 µM (inactive)
GI50 (HCT-15): 39.3 µM
GI50 (HL-60): 19 µM (inactive)
GI50 (LOX IMVI): 30.3 µM (inactive)
GI50 (MDA-MB-435): 73.6 µM (inactive)
GI50 (Malme-3M): > 100 µM (inactive)
GI50 (NCI/ADR-RES): 41.5 µM (inactive)
GI50 (OVCAR-4): 37.8 µM (inactive)
GI50 (PC-3): 35 µM (inactive)
GI50 (SF-539): 36.6 µM (inactive)
GI50 (SK-OV-3): 84.3 µM (inactive)
GI50 (SN12C): 65.3 µM (inactive)
GI50 (SNB-75): > 100 µM (inactive)
GI50 (TK-10): 79.8 µM (inactive)
GI50 (U-251): 42.2 µM (inactive)
GI50 (UACC-257): > 100 µM (inactive)

CC1(C)CCC[C@]2(C)[C@H]3[C@H](C#N)c4cc(O)c(O)cc4O[C@@]3(C)CC[C@@H]12
GI50 (786-0): > 10 µM (inactive)
GI50 (COLO 205): > 10 µM (inactive)
GI50 (DU-145): > 10 µM (inactive)
GI50 (HCC 2998): > 10 µM (inactive)
GI50 (HCT-15): > 10 µM
GI50 (HL-60): > 10 µM (inactive)
GI50 (LOX IMVI): > 10 µM (inactive)
GI50 (NCI/ADR-RES): > 10 µM (inactive)
GI50 (OVCAR-4): > 10 µM (inactive)
GI50 (PC-3): > 10 µM (inactive)
GI50 (SF-539): > 10 µM (inactive)
GI50 (SK-OV-3): > 10 µM (inactive)
GI50 (SN12C): > 10 µM (inactive)
GI50 (SR): > 10 µM (inactive)
GI50 (TK-10): > 10 µM (inactive)
GI50 (U-251): > 10 µM (inactive)
GI50 (UACC-257): > 10 µM (inactive)

Clc1ccc(-c2cn3c(nc4ccccc43)c(/C=C/c3ccco3)n2)cc1
GI50 (786-0): 30.3 µM (inactive)
GI50 (COLO 205): 41.7 µM (inactive)
GI50 (DU-145): 75.7 µM (inactive)
GI50 (HCC 2998): 22.2 µM (inactive)
GI50 (HCT-15): 57.5 µM
GI50 (HL-60): 12.5 µM (inactive)
GI50 (LOX IMVI): 33 µM (inactive)
GI50 (MDA-MB-435): 23.2 µM (inactive)
GI50 (Malme-3M): 70.3 µM (inactive)
GI50 (NCI/ADR-RES): 42.1 µM (inactive)
GI50 (OVCAR-4): 25.3 µM (inactive)
GI50 (SF-539): 71.1 µM (inactive)
GI50 (SK-OV-3): 90.2 µM (inactive)
GI50 (SN12C): 50 µM (inactive)
GI50 (SNB-75): 18.4 µM (inactive)
GI50 (SR): 17.9 µM (inactive)
GI50 (TK-10): 24 µM (inactive)
GI50 (U-251): 28.2 µM (inactive)
GI50 (UACC-257): 50.6 µM (inactive)

O=[N+]([O-])c1ccc(CSC2=C(c3ccc(Cl)cc3)S/C(=C3\SC(SCc4ccc([N+](=O)[O-])cc4)=C(c4ccc(Cl)cc4)S3)S2)cc1
GI50 (786-0): > 100 µM (inactive)
GI50 (COLO 205): > 100 µM (inactive)
GI50 (DU-145): > 100 µM (inactive)
GI50 (HCC 2998): > 100 µM (inactive)
GI50 (HCT-15): > 100 µM
GI50 (LOX IMVI): > 100 µM (inactive)
GI50 (MDA-MB-435): > 100 µM (inactive)
GI50 (Malme-3M): > 100 µM (inactive)
GI50 (NCI/ADR-RES): > 100 µM (inactive)
GI50 (OVCAR-4): > 100 µM (inactive)
GI50 (PC-3): > 100 µM (inactive)
GI50 (SF-539): > 100 µM (inactive)
GI50 (SK-OV-3): > 100 µM (inactive)
GI50 (SN12C): > 100 µM (inactive)
GI50 (TK-10): > 100 µM (inactive)
GI50 (U-251): > 100 µM (inactive)
GI50 (UACC-257): > 100 µM (inactive)

Cc1cc2c(C)n(Cc3ccccc3Cl)nc2c(C(=O)O)c1C
GI50 (786-0): > 100 µM (inactive)
GI50 (COLO 205): > 10 µM (inactive)
GI50 (HCC 2998): > 100 µM (inactive)
GI50 (HCT-15): > 100 µM
GI50 (HL-60): > 100 µM (inactive)
GI50 (LOX IMVI): > 100 µM (inactive)
GI50 (Malme-3M): > 100 µM (inactive)
GI50 (SF-539): > 100 µM (inactive)
GI50 (SK-OV-3): > 100 µM (inactive)
GI50 (SN12C): > 100 µM (inactive)
GI50 (SNB-75): > 100 µM (inactive)
GI50 (SR): > 100 µM (inactive)
GI50 (TK-10): > 100 µM (inactive)
GI50 (U-251): > 100 µM (inactive)
GI50 (UACC-257): > 100 µM (inactive)

C=C1C(=O)OC2C3C(=C)[C@@H](OC(C)=O)CC3C(C)=CC(OC(=O)C(C)(O)C(C)OC(C)=O)[C@@H]12 (some centres not stated)
GI50 (786-0): 11.5 µM (inactive)
GI50 (COLO 205): 4.15 µM (inactive)
GI50 (DU-145): 16.2 µM (inactive)
GI50 (HCC 2998): 16.1 µM (inactive)
GI50 (HCT-15): 10.4 µM
GI50 (HL-60): 2.55 µM (inactive)
GI50 (LOX IMVI): 4.89 µM (inactive)
GI50 (MDA-MB-435): 8.93 µM (inactive)
GI50 (Malme-3M): 6.7 µM (inactive)
GI50 (OVCAR-4): 7.28 µM (inactive)
GI50 (PC-3): 16.3 µM (inactive)
GI50 (SF-539): 13.8 µM (inactive)
GI50 (SK-OV-3): 80.9 µM (inactive)
GI50 (SN12C): 14.7 µM (inactive)
GI50 (SNB-75): 13.7 µM (inactive)
GI50 (SR): 7.41 µM (inactive)
GI50 (TK-10): 3.99 µM (inactive)
GI50 (U-251): 16.8 µM (inactive)
GI50 (UACC-257): 9.46 µM (inactive)

CCNc1ccc2c(c1)C(=O)N(OS(C)(=O)=O)C2=O
GI50 (786-0): 34.1 µM (inactive)
GI50 (COLO 205): 42.7 µM (inactive)
GI50 (DU-145): > 100 µM (inactive)
GI50 (HCC 2998): > 100 µM (inactive)
GI50 (HCT-15): 36.1 µM
GI50 (LOX IMVI): 38.3 µM (inactive)
GI50 (MDA-MB-435): > 100 µM (inactive)
GI50 (Malme-3M): 30.3 µM (inactive)
GI50 (NCI/ADR-RES): > 100 µM (inactive)
GI50 (OVCAR-4): 42 µM (inactive)
GI50 (PC-3): > 100 µM (inactive)
GI50 (SF-539): 22.4 µM (inactive)
GI50 (SK-OV-3): > 100 µM (inactive)
GI50 (SN12C): > 100 µM (inactive)
GI50 (TK-10): > 100 µM (inactive)
GI50 (U-251): > 100 µM (inactive)
GI50 (UACC-257): > 100 µM (inactive)
